The target in test [1] is T1, CDK9/CycT1 (Homo sapiens, UniProt P50750).
T1 construct: Recombinant full-length His-tagged human CDK9 and CycT1; purchased Life Technologies PV4131; host or cells: insect cells
Description: CDK9/CycT1 high ATP kinase assay (TR-FRET, 2 mM ATP). The class given is biochemical. The note with it: 2 mM ATP (high ATP); median; read-out: CDK9/CyclinT1, 2 mM ATP (high ATP), IC50 (median). Put shortly:
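Full-length His-tagged human CDK9/CycT1 (insect cell, ~0.5 μg/mL) preincubated 15 min at 22 °C with compound in Tris pH 8.0, MgCl2, DTT buffer before reaction with biotinylated peptide substrate at high ATP (2 mM).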
For orientation: Time-resolved FRET reads energy transfer from a long-lived donor to a nearby acceptor.

Test [2] has as its target T2, CYCLIN K (nuclear staining in CAL-120 cells) (Homo sapiens, UniProt O75909).
T2 construct: endogenous in cells; host or cells: CAL-120 human breast cancer cells (DSMZ ACC 459)
Nature of the test: CYCLIN K nuclear protein level: immunofluorescence high content analysis (CAL-120). The class given is cell-based. The note with it: 24 h, 50% reduction of nuclear CCNK staining intensity, median, read-out: CYCLIN K degradation IF, DC50-[mol/l] (median). In outline: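 CAL-120 breast cancer cells treated in dose-response for 24 h at 37 °C, PFA-fixed and immunostained for cyclin K with Hoechst counterstain. Confocal imaging quantified nuclear intensity; DC50 is the concentration giving 50% reduction of nuclear CCNK staining, normalized to DMSO and control.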

T1 sequence (P50750 whole entry): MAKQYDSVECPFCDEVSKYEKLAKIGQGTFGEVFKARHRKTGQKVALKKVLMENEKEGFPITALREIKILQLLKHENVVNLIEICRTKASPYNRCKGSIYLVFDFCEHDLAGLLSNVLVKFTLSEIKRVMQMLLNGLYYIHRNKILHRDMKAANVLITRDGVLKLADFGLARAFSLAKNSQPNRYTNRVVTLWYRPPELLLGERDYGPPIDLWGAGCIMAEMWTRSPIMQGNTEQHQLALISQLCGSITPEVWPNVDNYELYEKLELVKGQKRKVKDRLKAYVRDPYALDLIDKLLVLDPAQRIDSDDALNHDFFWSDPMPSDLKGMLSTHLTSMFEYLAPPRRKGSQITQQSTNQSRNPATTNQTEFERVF
T1 sequence (O60563 whole entry partner): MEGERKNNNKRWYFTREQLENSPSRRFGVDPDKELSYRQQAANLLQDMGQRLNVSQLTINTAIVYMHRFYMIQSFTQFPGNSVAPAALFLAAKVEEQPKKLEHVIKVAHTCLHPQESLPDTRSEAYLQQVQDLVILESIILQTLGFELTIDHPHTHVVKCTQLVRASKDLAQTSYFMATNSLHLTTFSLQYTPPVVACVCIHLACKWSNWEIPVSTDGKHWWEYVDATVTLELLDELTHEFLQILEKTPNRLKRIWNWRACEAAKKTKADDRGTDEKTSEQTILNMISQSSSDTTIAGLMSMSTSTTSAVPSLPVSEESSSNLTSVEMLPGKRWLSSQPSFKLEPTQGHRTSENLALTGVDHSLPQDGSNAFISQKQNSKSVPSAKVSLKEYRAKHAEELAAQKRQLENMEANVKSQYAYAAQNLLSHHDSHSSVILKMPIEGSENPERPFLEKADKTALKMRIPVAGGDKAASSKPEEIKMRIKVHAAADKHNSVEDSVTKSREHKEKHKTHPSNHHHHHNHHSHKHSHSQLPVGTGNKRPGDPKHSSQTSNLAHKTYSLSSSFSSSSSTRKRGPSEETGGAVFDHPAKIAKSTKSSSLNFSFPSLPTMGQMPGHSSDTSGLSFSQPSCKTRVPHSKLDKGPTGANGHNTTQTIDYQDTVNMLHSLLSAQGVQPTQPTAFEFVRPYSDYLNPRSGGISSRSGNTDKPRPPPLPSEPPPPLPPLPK
T2 sequence (O75909 whole entry): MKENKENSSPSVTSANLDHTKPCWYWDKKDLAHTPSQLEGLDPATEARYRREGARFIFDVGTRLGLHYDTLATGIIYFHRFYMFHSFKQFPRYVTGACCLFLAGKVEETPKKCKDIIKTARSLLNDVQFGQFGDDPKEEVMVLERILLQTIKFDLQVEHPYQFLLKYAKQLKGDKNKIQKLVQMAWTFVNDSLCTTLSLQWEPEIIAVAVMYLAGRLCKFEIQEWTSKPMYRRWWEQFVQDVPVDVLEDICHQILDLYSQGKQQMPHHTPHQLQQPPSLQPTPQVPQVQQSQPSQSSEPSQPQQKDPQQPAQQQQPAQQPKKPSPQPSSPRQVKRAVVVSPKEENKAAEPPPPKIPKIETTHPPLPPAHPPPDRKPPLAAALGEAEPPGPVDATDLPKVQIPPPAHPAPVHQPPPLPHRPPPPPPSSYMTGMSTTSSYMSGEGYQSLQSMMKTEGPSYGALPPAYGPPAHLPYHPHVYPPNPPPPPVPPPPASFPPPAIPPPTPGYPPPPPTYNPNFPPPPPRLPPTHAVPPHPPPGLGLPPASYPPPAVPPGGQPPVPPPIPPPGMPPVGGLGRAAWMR
T2 sequence (Q9NYV4 whole entry partner): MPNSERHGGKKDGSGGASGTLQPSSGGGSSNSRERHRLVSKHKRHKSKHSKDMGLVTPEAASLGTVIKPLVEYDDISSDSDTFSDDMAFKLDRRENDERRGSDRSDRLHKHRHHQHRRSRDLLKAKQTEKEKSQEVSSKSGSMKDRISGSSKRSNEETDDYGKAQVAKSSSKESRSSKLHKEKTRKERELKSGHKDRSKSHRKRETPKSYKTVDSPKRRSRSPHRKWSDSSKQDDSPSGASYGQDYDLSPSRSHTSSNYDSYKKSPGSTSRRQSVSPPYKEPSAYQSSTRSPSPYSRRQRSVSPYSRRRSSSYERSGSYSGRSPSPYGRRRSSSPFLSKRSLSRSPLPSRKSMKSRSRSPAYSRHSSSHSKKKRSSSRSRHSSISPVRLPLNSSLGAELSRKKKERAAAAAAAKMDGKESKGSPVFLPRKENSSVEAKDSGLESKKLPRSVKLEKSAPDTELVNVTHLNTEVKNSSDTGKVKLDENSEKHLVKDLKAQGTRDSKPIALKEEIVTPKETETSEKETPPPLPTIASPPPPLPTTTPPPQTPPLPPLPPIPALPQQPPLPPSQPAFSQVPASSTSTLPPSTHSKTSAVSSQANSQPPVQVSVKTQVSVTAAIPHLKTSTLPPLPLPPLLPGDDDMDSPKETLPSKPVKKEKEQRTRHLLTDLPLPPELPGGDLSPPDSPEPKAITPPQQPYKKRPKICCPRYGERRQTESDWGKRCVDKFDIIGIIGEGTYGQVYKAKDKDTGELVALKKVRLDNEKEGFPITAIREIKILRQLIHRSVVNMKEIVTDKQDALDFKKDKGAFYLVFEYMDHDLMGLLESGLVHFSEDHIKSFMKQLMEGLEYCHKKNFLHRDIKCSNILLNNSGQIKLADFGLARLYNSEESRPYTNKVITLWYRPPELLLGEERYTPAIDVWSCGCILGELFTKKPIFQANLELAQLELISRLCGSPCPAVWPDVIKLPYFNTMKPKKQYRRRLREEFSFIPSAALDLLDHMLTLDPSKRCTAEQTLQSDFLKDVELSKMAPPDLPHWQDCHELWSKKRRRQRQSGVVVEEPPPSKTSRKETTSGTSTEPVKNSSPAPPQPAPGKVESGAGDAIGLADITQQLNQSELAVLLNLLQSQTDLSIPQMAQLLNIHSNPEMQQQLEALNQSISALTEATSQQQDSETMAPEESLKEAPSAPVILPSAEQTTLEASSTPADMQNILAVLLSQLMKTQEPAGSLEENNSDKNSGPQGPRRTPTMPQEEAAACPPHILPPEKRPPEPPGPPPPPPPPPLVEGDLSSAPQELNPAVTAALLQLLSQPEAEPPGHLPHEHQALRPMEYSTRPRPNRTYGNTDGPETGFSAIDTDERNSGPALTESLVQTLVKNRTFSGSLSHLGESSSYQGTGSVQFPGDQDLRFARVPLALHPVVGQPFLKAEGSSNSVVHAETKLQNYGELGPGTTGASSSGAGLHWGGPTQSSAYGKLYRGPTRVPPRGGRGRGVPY

For the molecule `FC(F)(F)Cc1cnn2c(NCc3nc4ccccc4[nH]3)nc(N3CCOCC3)nc12.O=CO` [Example 265, formic acid-N-[(1H-benzimidazol-2-yl)methyl]-2-(morpholin-4-yl)-8-(2,2,2-trifluoroethyl)pyrazolo[1,5-a][1,3,5]triazin-4-amine (1/1)], the IC50 in test [1] is greater than 20000 nM. For the same molecule, the DC50 in test [2] came to 3.14 nM.
On the same counts, the results for `CN1CCN(c2nc(NCc3nc4cc(F)c(F)cc4[nH]3)n3ncc(C4CC4)c3n2)CC1` [Example 311, 8-cyclopropyl-N-[(5,6-difluoro-1H-benzimidazol-2-yl)methyl]-2-(4-methylpiperazin-1-yl)pyrazolo[1,5-a][1,3,5]triazin-4-amine] are greater than 20000 nM and 0.892 nM.
For `Fc1cccc2[nH]c(CNc3nc(N4CCOCC4)nc4c(CC(F)(F)F)cnn34)nc12` [Example 303, N-[(4-fluoro-1H-benzimidazol-2-yl)methyl]-2-(morpholin-4-yl)-8-(2,2,2-trifluoroethyl)pyrazolo[1,5-a][1,3,5]triazin-4-amine], in that order: greater than 20000 nM and 0.546 nM.
For `N[C@H]1[C@@H]2C[C@H]1CN(c1nc(NCc3nc4ccccc4[nH]3)n3ncc(Br)c3n1)C2` [Example 288, 2-[(1R,5S,6r)-6-amino-3-azabicyclo[3.1.1]heptan-3-yl]-N-[(1H-benzimidazol-2-yl)methyl]-8-bromopyrazolo[1,5-a][1,3,5]triazin-4-amine], in that order: greater than 20000 nM and 0.418 nM.
With `N[C@@H]1CCN(c2nc(NCc3nc4ccccc4[nH]3)n3ncc(Br)c3n2)C1` [Example 250, 2-[(3R)-3-aminopyrrolidin-1-yl]-N-[(1H-benzimidazol-2-yl)methyl]-8-bromopyrazolo[1,5-a][1,3,5]triazin-4-amine], the IC50 in test [1] was greater than 20000 nM. For the same molecule, the DC50 in test [2] is 0.407 nM.
On to `CN1CCN(c2nc(NCc3nc4c(F)cccc4[nH]3)n3ncc(C(F)(F)F)c3n2)CC1` [Example 293, N-[(4-fluoro-1H-benzimidazol-2-yl)methyl]-2-(4-methylpiperazin-1-yl)-8-(trifluoromethyl)pyrazolo[1,5-a][1,3,5]triazin-4-amine], for which the IC50 in test [1] was greater than 20000 nM. Further, in test [2], the DC50 came out at 0.385 nM.
Regarding `CN1CCN(c2nc(NCc3nc4ccccc4[nH]3)n3ncc(C(F)(F)F)c3n2)CC1` [Example 297, N-[(1H-benzimidazol-2-yl)methyl]-2-(4-methylpiperazin-1-yl)-8-(trifluoromethyl)pyrazolo[1,5-a][1,3,5]triazin-4-amine], in test [1], the IC50 was greater than 20000 nM. For the same molecule, in test [2], the DC50 is 0.679 nM.
`FC(F)(F)Cc1cnn2c(NCc3nc4cc(Cl)c(Cl)cc4[nH]3)nc(N3CCOCC3)nc12` [Example 302, N-[(5,6-dichloro-1H-benzimidazol-2-yl)methyl]-2-(morpholin-4-yl)-8-(2,2,2-trifluoroethyl)pyrazolo[1,5-a][1,3,5]triazin-4-amine]: the IC50 in test [1] is greater than 20000 nM. Moreover, in test [2], the DC50 turned out to be 1.66 nM.
`C[C@@]1(O)CCN(c2nc(NCc3nc4ccccc4[nH]3)n3ncc(Br)c3n2)C1` (single isomer, unassigned) [Example 281, (3R or S)-1-(4-{[(1H-benzimidazol-2-yl)methyl]amino}-8-bromopyrazolo[1,5-a][1,3,5]triazin-2-yl)-3-methylpyrrolidin-3-ol]: in test [1], the IC50 was greater than 20000 nM. Further, the DC50 in test [2] was determined as 20.8 nM.
On the same counts, the results for `Fc1ccc2[nH]c(CNc3nc(N4C[C@H]5CC[C@@H](C4)N5)nc4c(C5CC5)cnn34)nc2c1F` [Example 294, 8-cyclopropyl-2-[(1R,5S)-3,8-diazabicyclo[3.2.1]octan-3-yl]-N-[(4,5-difluoro-1H-benzimidazol-2-yl)methyl]pyrazolo[1,5-a][1,3,5]triazin-4-amine] are 15300 nM and 0.56 nM.
Consider `N[C@@H]1[C@@H]2C[C@H]1CN(c1nc(NCc3nc4ccccc4[nH]3)n3ncc(Br)c3n1)C2` [Example 289, 2-[(1R,5S,6s)-6-amino-3-azabicyclo[3.1.1]heptan-3-yl]-N-[(1H-benzimidazol-2-yl)methyl]-8-bromopyrazolo[1,5-a][1,3,5]triazin-4-amine], for which the IC50 in test [1] was greater than 20000 nM. Besides, in test [2], the DC50 stood at 1.76 nM.
For `Fc1cc2nc(CNc3nc(N4CCOCC4)nc4c(C5CC5)cnn34)[nH]c2cc1F` [Example 318, 8-cyclopropyl-N-[(5,6-difluoro-1H-benzimidazol-2-yl)methyl]-2-(morpholin-4-yl)pyrazolo[1,5-a][1,3,5]triazin-4-amine], in that order: greater than 20000 nM and 0.516 nM.
For `Fc1cc2nc(CNc3nc(N4CCOCC4)nc4c(C5CC5)cnn34)[nH]c2cc1Cl` [Example 307, N-[(6-chloro-5-fluoro-1H-benzimidazol-2-yl)methyl]-8-cyclopropyl-2-(morpholin-4-yl)pyrazolo[1,5-a][1,3,5]triazin-4-amine], in that order: greater than 20000 nM and 0.863 nM.
On to `CN[C@H]1CCN(c2nc(NCc3nc4ccccc4[nH]3)n3ncc(Br)c3n2)C1` [Example 252, N-[(1H-benzimidazol-2-yl)methyl]-8-bromo-2-[(3S)-3-(methylamino)pyrrolidin-1-yl]pyrazolo[1,5-a][1,3,5]triazin-4-amine], for which, in test [1], the IC50 is greater than 20000 nM. Moreover, the DC50 in test [2] is 2.42 nM.
For `Brc1cnn2c(NCc3nc4ccccc4[nH]3)nc(N3C[C@H]4C[C@@H]3CN4)nc12` [Example 269, N-[(1H-benzimidazol-2-yl)methyl]-8-bromo-2-[(1R,4R)-2,5-diazabicyclo[2.2.1]heptan-2-yl]pyrazolo[1,5-a][1,3,5]triazin-4-amine], in that order: greater than 20000 nM and 0.324 nM.
On the same counts, the results for `c1ccc2[nH]c(CNc3nc(N4CCOCC4)nc4c(C5CCCC5)cnn34)nc2c1` [Example 244, N-[(1H-benzimidazol-2-yl)methyl]-8-cyclopentyl-2-(morpholin-4-yl)pyrazolo[1,5-a][1,3,5]triazin-4-amine] are greater than 20000 nM and 15.6 nM.
On to `N[C@@H]1CN(c2nc(NCc3nc4ccccc4[nH]3)n3ncc(Br)c3n2)CC12CC2` [Example 251, 2-[(7S)-7-amino-5-azaspiro[2.4]heptan-5-yl]-N-[(1H-benzimidazol-2-yl)methyl]-8-bromopyrazolo[1,5-a][1,3,5]triazin-4-amine], for which the IC50 in test [1] is greater than 20000 nM. Also, the DC50 in test [2] came to 0.11 nM.
On the same counts, the results for `c1ccc2[nH]c(CNc3nc(N4CCNCC4)nc4c(C5CC5)cnn34)nc2c1` [Example 247, N-[(1H-benzimidazol-2-yl)methyl]-8-cyclopropyl-2-(piperazin-1-yl)pyrazolo[1,5-a][1,3,5]triazin-4-amine] are greater than 20000 nM and 0.933 nM.
On the same counts, the results for `N[C@H]1CCN(c2nc(NCc3nc4ccccc4[nH]3)n3ncc(Br)c3n2)C1` [Example 245, 2-[(3S)-3-aminopyrrolidin-1-yl]-N-[(1H-benzimidazol-2-yl)methyl]-8-bromopyrazolo[1,5-a][1,3,5]triazin-4-amine] are greater than 20000 nM and 0.627 nM.
Consider `FC(F)(F)c1cnn2c(NCc3nc4cc(Cl)ccc4[nH]3)nc(N3CCOCC3)nc12` [Example 275, N-[(5-chloro-1H-benzimidazol-2-yl)methyl]-2-(morpholin-4-yl)-8-(trifluoromethyl)pyrazolo[1,5-a][1,3,5]triazin-4-amine], for which, in test [1], the IC50 was greater than 20000 nM. In addition, in test [2], the DC50 was determined as 0.303 nM.
On the same counts, the results for `FC1(F)CC1c1cnn2c(NCc3nc4ccccc4[nH]3)nc(N3CCOCC3)nc12` (centres unmarked) [Example 279, N-[(1H-benzimidazol-2-yl)methyl]-8-(2,2-difluorocyclopropyl)-2-(morpholin-4-yl)pyrazolo[1,5-a][1,3,5]triazin-4-amine] are greater than 20000 nM and 3.78 nM.
Consider `Fc1ccc2[nH]c(CNc3nc(N4CCOCC4)nc4c(C5CCC5)cnn34)nc2c1F` [Example 264, 8-cyclobutyl-N-[(4,5-difluoro-1H-benzimidazol-2-yl)methyl]-2-(morpholin-4-yl)pyrazolo[1,5-a][1,3,5]triazin-4-amine], for which the IC50 in test [1] is greater than 20000 nM. The DC50 in test [2] was found to be 1.8 nM.
On the same counts, the results for `c1ccc2[nH]c(CNc3nc(N4CCOCC4)nc4c(C5CCC5)cnn34)nc2c1` [Example 263, N-[(1H-benzimidazol-2-yl)methyl]-8-cyclobutyl-2-(morpholin-4-yl)pyrazolo[1,5-a][1,3,5]triazin-4-amine] are greater than 20000 nM and 1.82 nM.
On the same counts, the results for `CC1CN(C)CCN1c1nc(NCc2nc3ccccc3[nH]2)n2ncc(Br)c2n1` (single isomer, unassigned; enantiomer 2) [Example 261, N-(1H-benzimidazol-2-ylmethyl)-8-bromo-2-[(2R or S)-2,4-dimethylpiperazin-1-yl]pyrazolo[1,5-a][1,3,5]triazin-4-amine (Enantiomer 2)] are greater than 20000 nM and 1.23 nM.
On the same counts, the results for `CN(CC(C)(C)O)c1nc(NCc2nc3cc(Cl)c(Cl)cc3[nH]2)n2ncc(C3CC3)c2n1` [Example 306, 1-[(8-cyclopropyl-4-{[(5,6-dichloro-1H-benzimidazol-2-yl)methyl]amino}pyrazolo[1,5-a][1,3,5]triazin-2-yl)(methyl)amino]-2-methylpropan-2-ol] are greater than 20000 nM and 0.642 nM.

The values above are taken from patent US20230117034A1, “PYRAZOLOTRIAZINES” (Bayer Aktiengesellschaft, priority 2019, published 2023).
